# Measured values from US20070004763A1, “AMINOQUINOLINE AND AMINOQUINAZOLINE KINASE MODULATORS” (priority 2005, published 2007).
# Target: T1, TrkB (Homo sapiens, UniProt Q16620)
# T1 construct: purchased Upstate 14-507M
# Test: Trk B Fluorescence Polarization Kinase Assay
# Assay type: biochemical
# Settings: 150 uM ATP, 50 nM TrkB; uncertainty ±10%
# Procedure: The compounds of the present invention are also specific inhibitors of TrkB. Selection of preferred compounds of Formula I for use as TrkB inhibitors was performed in the following manner. The TrkB assay utilized the fluorescein-labeled phosphopeptide and the anti-phosphotyrosine antibody included in the Panvera Phospho-Tyrosine Kinase Kit (Green) supplied by Invitrogen. When TrkB phosphorylated poly Glu4Tyr, the fluorescein-labeled phosphopeptide was displaced from the anti-phosphotyrosine antibody by the phosphorylated poly Glu4Tyr, thus decreasing the FP value. The TrkB kinase reaction was incubated at room temperature for 30 minutes under the following conditions: 50 nM TrkB (Upstate, catalog #14-507M), 20 ug/mL poly Glu4Tyr, 150 uM ATP, 5 mM MgCl2, 1% compound in DMSO. The kinase reaction was stopped with the addition of EDTA. The fluorescein-labeled phosphopeptide and the anti-phosphotyrosine antibody were added and incubated for 30 minutes at room temperature. Data points were an average of triplicate samples. Inhibition and IC50 data analysis were done with GraphPad Prism using a non-linear regression fit with a multiparamater, sigmoidal dose-response (variable slope) equation.
# T1 sequence (Q16620 526-822 limits assumed): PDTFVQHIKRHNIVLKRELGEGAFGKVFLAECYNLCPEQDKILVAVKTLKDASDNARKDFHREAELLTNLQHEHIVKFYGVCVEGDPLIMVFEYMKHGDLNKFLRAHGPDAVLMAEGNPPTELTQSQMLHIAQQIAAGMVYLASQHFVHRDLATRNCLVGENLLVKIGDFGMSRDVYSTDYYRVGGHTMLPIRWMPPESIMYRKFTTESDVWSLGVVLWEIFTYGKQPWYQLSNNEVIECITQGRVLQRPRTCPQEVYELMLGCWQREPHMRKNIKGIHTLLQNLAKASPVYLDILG
row,Compound,IC50 [µM]
1,"COc1cc2ncnc(N3CCC(NC(=O)Nc4ccc(N5CCCC5)nc4)C3)c2cc1OC (centres unmarked) [Compound 46, 1-[1-(6,7-Dimethoxy-quinazolin-4-yl)-pyrrolidin-3-yl]-3-(6-pyrrolidin-1-yl-pyridin-3-yl)-urea]",24.8
2,"COc1cc2ncnc(N3CCC(NC(=O)Nc4ccc(N5CCCCC5)cc4)C3)c2cc1OC (centres unmarked) [Compound 47, 1-[1-(6,7-Dimethoxy-quinazolin-4-yl)-pyrrolidin-3-yl]-3-(4-piperidin-1-yl-phenyl)-urea]",12
3,"COc1cc2ncnc(N3CCC(NC(=O)Nc4ccc(Cl)cc4)C3)c2cc1OC (centres unmarked) [Compound 48, 1-(4-Chloro-phenyl)-3-[1-(6,7-dimethoxy-quinazolin-4-yl)-pyrrolidin-3-yl]-urea]",16
4,"COc1cc2ncnc(N3CCC(NC(=O)Nc4ccc(N5CCCC5)cc4)C3)c2cc1OC (centres unmarked) [Compound 49, 1-[1-(6,7-Dimethoxy-quinazolin-4-yl)-pyrrolidin-3-yl]-3-(4-pyrrolidin-1-yl-phenyl)-urea]",3.88
5,"COc1cc2ncnc(N3CCC(NC(=O)Nc4ccc(C5CCCCC5)cc4)C3)c2cc1OC (centres unmarked) [Compound 50, 1-(4-Cyclohexyl-phenyl)-3-[1-(6,7-dimethoxy-quinazolin-4-yl)-pyrrolidin-3-yl]-urea]",> 46
6,"COc1cc2ncnc(N3CCC(NC(=O)Nc4ccc(Oc5ccccc5)cc4)C3)c2cc1OC (centres unmarked) [Compound 51, 1-[1-(6,7-Dimethoxy-quinazolin-4-yl)-pyrrolidin-3-yl]-3-(4-phenoxy-phenyl)-urea]",2.74
7,"COc1cc2ncnc(N3CCC(NC(=O)Nc4ccc(N(C)C)cc4)C3)c2cc1OC (centres unmarked) [Compound 52, 1-[1-(6,7-Dimethoxy-quinazolin-4-yl)-pyrrolidin-3-yl]-3-(4-dimethylamino-phenyl)-urea]",22.7
8,"COc1cc2ncnc(N3CCC(NC(=O)Nc4ccc(OC5CCCC5)cc4)C3)c2cc1OC (centres unmarked) [Compound 53, 1-(4-Cyclopentyloxy-phenyl)-3-[1-(6,7-dimethoxy-quinazolin-4-yl)-pyrrolidin-3-yl]-urea]",4.07
9,"COc1cc2ncnc(N3CCC(OC(=O)Nc4ccc(OC5CCCC5)cc4)C3)c2cc1OC (centres unmarked) [Compound 54, (4-Cyclopentyloxy-phenyl)-carbamic acid 1-(6,7-dimethoxy-quinazolin-4-yl)-pyrrolidin-3-yl ester]",44.6
10,"COc1cc2ncnc(N3CCC(OC(=O)Nc4ccc(OC5CCCC5)cc4)CC3)c2cc1OC [Compound 55, (4-Cyclopentyloxy-phenyl)-carbamic acid 1-(6,7-dimethoxy-quinazolin-4-yl)-piperidin-4-yl ester]",> 46
11,"COc1cc2ncnc(N3CCC(COC(=O)Nc4ccc(OC5CCCC5)cc4)CC3)c2cc1OC [Compound 56, (4-Cyclopentyloxy-phenyl)-carbamic acid 1-(6,7-dimethoxy-quinazolin-4-yl)-piperidin-4-ylmethyl ester]",6.58
